Laboratory results reported in patent publication US20150297579A1, “TREATMENT OF CANCER WITH POMALIDOMIDE IN A RENALLY IMPAIRED SUBJECT” (priority 2012, published 2015).

System: patients with relapsed/refractory multiple myeloma (RRMM)
Assay: POM+LoDEX vs. HiDEX in RRMM: analysis of patients with moderate renal impairment
Assay type: in vivo, human
Description: Randomization was 2:1 to POM 4 mg (Day 1 to Day 21)+DEX 40 mg (20 mg for patients aged >75 y) qw; or DEX 40 mg (20 mg for patients aged >75 y) (Day 1-Day 4, Day 9-Day 12, and Day 17-Day 20) in a 28-D cycle. Treatment continued until PD or unacceptable adverse event (AE). The primary endpoint was progression-free survival (PFS). Secondary endpoints included overall survival (OS) and AEs. This analysis examined patients with or without moderate RI (CrCl<60 vs.≧60 mL/min).

## C[C@@H]1C[C@H]2[C@@H]3CCC4=CC(=O)C=C[C@]4(C)[C@@]3(F)[C@@H](O)C[C@]2(C)[C@@]1(O)C(=O)CO [HiDEX, (8S,9R,10S,11S,13S,14S,16R,17R)-9-fluoro-11,17-dihydroxy-17-(2-hydroxyacetyl)-10,13,16-trimethyl-6,7,8,9,10,11,12,13,14,15,16,17-dodecahydro-3H-cyclopenta[a]phenanthren-3-one]
CrCl <60 mL/min (moderate RI)
  Median OS (mo): 4.6 mo
  Median PFS (mo): 1.6 mo
CrCl ≧60 mL/min
  Median OS (mo): 9.2 mo
  Median PFS (mo): 1.8 mo
Moderate RI
  Discontinuation due to AE: 5%
  Gr 3/4 AE: anemia: 34%
  Gr 3/4 AE: infection: 24%
  Gr 3/4 AE: neutropenia: 15%
No moderate RI
  Discontinuation due to AE: 7%
Normal renal function
  Gr 3/4 AE: anemia: 26%
  Gr 3/4 AE: infection: 23%
  Gr 3/4 AE: neutropenia: 15%
